Results as given in patent publication US20090226398A1, “ANTI-VIRAL COMPOUNDS, COMPOSITIONS, AND METHODS OF USE” (Genelabs Technologies, Inc., priority 2008, published 2009).
pEC50: −log10 of the molar value.

System: HCV replication
Experiment: Replicon Assay (Huh-lucubineo-ET cells, luciferase readout)
Format: cell-based
Conditions: Hepatitis C virus; ET (Huh-lucubineo-ET) HCV replicon cell line; luciferase activity 48-72 hours after compound addition; 6 dilutions
Procedure, shortened: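 Huh-lucubineo-ET cells stably carrying a firefly luciferase-ubiquitin-neo/NS3-5B ET replicon (adaptive mutations E1202G, T1280I, K1846T) were plated 24 h before compound, then treated at 5 or 50 μM or six 3-fold dilutions. Luciferase read 48-72 h later; % inhibition vs no-compound control, EC50/TC50 from Hill-equation fit.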

Row | Compound | pEC50
1 | Fc1cccc(-c2nc3cnn(Cc4ccc(-c5ccc(C(F)(F)F)cc5)nc4)cc-3n2)c1F [Compound 253, 2-(2,3-Difluoro-phenyl)-5-[6-(4-trifluoromethyl-phenyl)-pyridin-3-ylmethyl]-5H-imidazo[4,5-d]pyridazine] | ≤ 4.30
2 | Fc1cccc(-c2nc3cnn(Cc4ccc(OCc5ccccc5)cc4)cc-3n2)c1F [Compound 280, 5-(4-Benzyloxy-benzyl)-2-(2,3-difluoro-phenyl)-5H-imidazo[4,5-d]pyridazine] | ≤ 4.30
3 | CCCOc1ccc(-c2ccc(Cn3cc4nc(-c5ccccc5F)nc-4cn3)nn2)c(C(F)(F)F)c1 [Compound 316, 2-(2-Fluoro-phenyl)-5-[6-(4-propoxy-2-trifluoromethyl-phenyl)-pyridazin-3-ylmethyl]-5H-imidazo[4,5-d]pyridazine] | 7.49
4 | COc1ccc(-c2ccc(Cn3cc4nc(-c5cccc(F)c5F)nc-4cn3)c([N+](=O)[O-])c2)c(C(F)(F)F)c1 [Compound 201, 2-(2,3-Difluoro-phenyl)-5-(4-methoxy-3-nitro-2-trifluoromethyl-biphenyl-4-ylmethyl)-5H-imidazo[4,5-d]pyridazine] | 7.30
5 | Fc1cccc(-c2nc3cnn(Cc4ccc(-c5ccccc5)cc4)cc-3n2)c1F [Compound 282, 5-Biphenyl-4-ylmethyl-2-(2,3-difluoro-phenyl)-5H-imidazo[4,5-d]pyridazine] | 6.16
6 | Fc1ccccc1-c1nc2cnn(Cc3ccc(Cl)cc3)cc-2n1 [Compound 102, 5-(4-Chloro-benzyl)-2-(2-fluoro-phenyl)-5H-imidazo[4,5-d]pyridazine] | ≤ 4.30
7 | Oc1nc(-c2ccc(C(F)(F)F)cc2C(F)(F)F)ccc1Cn1cc2nc(-c3cccc(F)c3F)nc-2cn1 [Compound 361, 6-(2,4-Bis-trifluoromethyl-phenyl)-3-[2-(2,3-difluoro-phenyl)-imidazo[4,5-d]pyridazin-5-ylmethyl]-pyridin-2-ol] | 4.86
8 | CC(C)CCOc1ccc(-c2ccc(Cn3cc4nc(-c5cccc(F)c5F)nc-4cn3)nn2)c(C(F)(F)F)c1 [Compound 329, 2-(2,3-Difluoro-phenyl)-5-{6-[4-(3-methyl-butoxy)-2-trifluoromethyl-phenyl]-pyridazin-3-ylmethyl}-5H-imidazo[4,5-d]pyridazine] | 6.07
9 | Fc1cccc(-c2nc3cnn(Cc4ccc(N5CCCCC5)cc4)cc-3n2)c1F [Compound 304, 2-(2,3-Difluoro-phenyl)-5-(4-piperidin-1-yl-benzyl)-5H-imidazo[4,5-d]pyridazine] | 5.41
10 | Nc1cc(C(F)(F)F)ccc1-c1ccc(Cn2cc3nc(-c4cccc(F)c4F)nc-3cn2)cn1 [Compound 335, 2-{5-[2-(2,3-Difluoro-phenyl)-imidazo[4,5-d]pyridazin-5-ylmethyl]-pyridin-2-yl}-5-trifluoromethyl-phenylamine] | 5.62
11 | CN(C)Cc1ccc(-c2ccc(Cn3cc4nc(-c5cccc(F)c5F)nc-4cn3)nn2)cc1 [Compound 233, (4-{6-[2-(2,3-Difluoro-phenyl)-imidazo[4,5-d]pyridazin-5-ylmethyl]-pyridazin-3-yl}-benzyl)-dimethyl-amine] | ≤ 4.30
12 | FCCOc1ccc(-c2ccc(Cn3cc4nc(-c5cccc(F)c5F)nc-4cn3)nn2)c(C(F)(F)F)c1 [Compound 352, 2-(2,3-Difluoro-phenyl)-5-{6-[4-(2-fluoro-ethoxy)-2-trifluoromethyl-phenyl]-pyridazin-3-ylmethyl}-5H-imidazo[4,5-d]pyridazine] | 7.64
13 | Cn1ccc2cc(-c3ccc(Cn4cc5nc(-c6cccc(F)c6F)nc-5cn4)nn3)ccc21 [Compound 216, 2-(2,3-Difluoro-phenyl)-5-[6-(1-methyl-1H-indol-5-yl)-pyridazin-3-ylmethyl]-5H-imidazo[4,5-d]pyridazine] | ≤ 4.30
14 | Fc1cccc(-c2nc3cnn(Cc4ccc(Oc5ccccn5)cc4)cc-3n2)c1F [Compound 314, 2-(2,3-Difluoro-phenyl)-5-[4-(pyridin-2-yloxy)-benzyl]-5H-imidazo[4,5-d]pyridazine] | ≤ 4.30
15 | Cc1ccc(-c2ccc(Cn3cc4nc(-c5cccc(F)c5F)nc-4cn3)nn2)c(Cl)c1 [Compound 227, 5-[6-(2-Chloro-4-methyl-phenyl)-pyridazin-3-ylmethyl]-2-(2,3-difluoro-phenyl)-5H-imidazo[4,5-d]pyridazine] | 7.01
16 | Cc1ccc(-c2ccc(Cn3cc4nc(-c5cccc(F)c5F)nc-4cn3)cn2)c(C(F)(F)F)c1 [Compound 376, 2-(2,3-Difluoro-phenyl)-5-[6-(4-methyl-2-trifluoromethyl-phenyl)-pyridin-3-ylmethyl]-5H-imidazo[4,5-d]pyridazine] | 6.88
17 | CCCOc1ccc(-c2ccc(Cn3cc4nc(-c5cccc(F)c5F)nc-4cn3)nc2)c(C(F)(F)F)c1 [Compound 296, 2-(2,3-Difluoro-phenyl)-5-[5-(4-propoxy-2-trifluoromethyl-phenyl)-pyridin-2-ylmethyl]-5H-imidazo[4,5-d]pyridazine] | 7.64
18 | Fc1cccc(-c2nc3cnn(Cc4ccc5ncccc5c4)cc-3n2)c1F [Compound 302, 6-[2-(2,3-Difluoro-phenyl)-imidazo[4,5-d]pyridazin-5-ylmethyl]-quinoline] | ≤ 4.30
